# Data taken from patent US12220395B2, “Intermittent endurance capacity improving agent or blood pH elevating agent” (AJINOMOTO CO., INC., priority 2018, dated 2025).
# How the values were obtained:
# C57BL/6J male mice [1] = test: mouse YO-YO test (intermittent endurance capacity, treadmill); assay type: in vivo; details: 6-week-old mice; oral aqueous solution 1 to 2 g/kg; YO-YO test from 30 min after administration; compared to water (negative control); FIG. 1
# Description: After ingesting a test substance into 6-week-old C57BL/6J male mice, a mouse YO-YO test was conducted to evaluate an intermittent endurance capacity improving effect of the test substance using the intermittent endurance capacity of each individual as an index. As the test substance, 20 kinds of amino acids (or salts thereof) were used.
# Preliminary running was performed on the mice one week before the main test. […] Unable to run was judged when the mouse could not keep up with the running speed. […] Grouping was performed such that the number of running sets and body weight of each individual obtained in the preliminary running were about the same for each group.
# In the week following the preliminary running, the mice evaluated for the intermittent endurance capacity were orally administered with an aqueous solution containing a test substance in a dose of 1 to 2 g/kg mouse body weight, or water (negative control) at 20 mL/kg mouse body weight. […] From 30 min after the oral administration, the above-mentioned YO-YO test was performed to evaluate the effect of the test substance on the number of runnable sets of each individual. […]
# C57BL/6J male mice [2] = test: increase in mouse plasma pH by oral administration; details: for blood (plasma) pH increasing effect, time course: 7- to 9-week-old mice, aspartic acid 1 g/kg, blood sampled 30, 60, 120 min after administration, i-STAT, FIGS. 2 and 3
SMILES,increase in the number of runnable sets (intermittent endurance capacity improving effect) (C57BL/6J male mice [1]),"blood (plasma) pH increasing effect, time course (C57BL/6J male mice [2])","time of peak of the pH increasing effect (C57BL/6J male mice [2]; plasma pH, mice, FIG. 2) [hr]"
N[C@@H](Cc1ccc(O)cc1)C(=O)O [tyrosine],significantly increased the number of runnable sets,,
N[C@@H](CC(=O)O)C(=O)O [aspartic acid],significantly increased the number of runnable sets,affords an effect of increasing blood pH even after 0.5 hr to 2 hr from the administration,
O=C([O-])O.[Na+] [sodium hydrogen carbonate],,the pH increasing effect disappeared rapidly thereafter,0.5
